The test system of assay [1] is NLRP1 inflammasome in HRV16-infected NHBEs. Put plainly: HRV16-induced IL-1β and IL-18 secretion in NHBEs (ELISA). The class given is cell-based, human. Conditions: HRV16 MOI=5, 33° C., 48 hours, pre-treated: MLN4924 1 μM, Bortezomib 1 μM, MCC950 5 μM, Rupintrivir 10 nM. The method, then: (§1) (A) Expression levels of NLRP1 vs. NLRP3 (RNAseq FKPM) in NHBEs. n=21, independent cultures of pooled NHBEs from healthy donors. (B) Expression of NLRP1 vs. NLRP3 in healthy human nasal biopsy. Puncta: positive staining by RNAscope. Nuclei staining: hematoxylin. (C) Overview of cytokine profiling of by HRV16-infected and Talabostat-treated NHBEs. (D) Cells were inoculated with HRV16 at MOI=5 and cultured at 33° C. for 48 hours. Luminex array was performed on conditioned media after removing cell debris. n=3 independent infections and treatment. Cytokines/chemokines that were induced at least 5 fold (p<0.05, Student's t test, lognormal values) are represented by square boxes. […] NHBEs were pretreated with MCC950 (5 μM) or Rupintrivir (10 nM) before HRV16 inoculation or Talabostat (2 μM) treatment. […] (G) Overview of apical HRV infection 3D human bronchial epithelial cultures. (H) Alcian blue (AB)/periodic acid-Schiff (PAS) staining of HRV16-infected (MOI=3) and Talabostat (2 μM)-treated 3D human bronchial epithelial cultures. (1) IL-18 level in apical or basal media 48 hours post-infection or Talabostat treatment. **P<0.01, ***P<0.001, ****P<0.0001 (Two-way ANOVA). n=3 independent infected/treated cultures. (J) Secretion of cleaved IL-1β and IL-18 and ASC oligomerization in HRV16-infected primary NHBEs. Cells were inoculated with HRV16 (MOI=5) or treated with Talabostat (2 μM) for 48 hours at 33° C.
(A) Endogenous NLRP1, ASC and caspase-1 are indispensable for HRV16-induced IL-18 secretion in NHBEs. Cas9-control, NLRP1, ASC and CASP1 KO NHBEs were infected with HRV16 as before. Conditioned media were harvested 48 hours post-infection. (B) NLRP1 is genetically required for HRV16-induced IL-18 cleavage and ASC oligomerization. Cas9 control, NLRP1 and ASC KO NHBEs were infected with HRV16 as before. Cleaved IL-18 are marked with arrows. (C) Mutating the NLRP1 cleavage site abrogates HRV16-triggered IL-18 secretion in NHBEs. NLRP1 KO NHBEs were rescued with lentiviral constructs expressing FLAG-tagged NLRP1^WT or NLRP1^Q130A, which carried silent mutations at the PAM sites. The rescued cells were infected with HRV16 or treated with Talabostat. Conditioned media was analyzed by IL-18 ELISA. **P<0.01, ***P<0.001, n=3 replicates from one of two independent infections. (D) Q130A abrogates NLRP1 cleavage, IL-18 maturation and ASC oligomerization in NHBEs. NLRP1 KO or NLRP1^WT- or NLRP1^Q130A-rescued cells were infected with HRV16 or treated with Talabostat. Cells were harvested 48 hours post infection. Arrow: NLRP1 cleavage product in lane 8 HRV16. *: Non-specific NLRP1 degradation product that occurs right below the a.a. 131-1213 cleavage fragment. See also FIG. 3E, 5E, 5D. (E) MLN4924 and Bortezomib blocks HRV16-induced IL-18 secretion. NHBEs were pre-treated with MLN4924 (1 μM) or Bortezomib (1 μM) before HRV16 infection or Talabostat treatment. IL-18 levels were measured with ELISA. ****, p<0.0001 (Two-way ANOVA), n=3 independent infections/treatment. (F) MLN4924 and Bortezomib blocks HRV16-induced IL-1β secretion. […] Lysates from HRV16-infected NHBEs in FIGS. 9E-F were analyzed by Western blot 48 hours post HRV16 inoculation.
The following antibodies were used in this study: c-Myc (Santa Cruz Biotechnology #sc-40), HA tag (Santa Cruz Biotechnology, #sc-805), GAPDH (Santa Cruz Biotechnology, #sc-47724), ASC (Adipogen, #AL-177), CASP1 (Santa Cruz Biotechnology, #sc-622), IL1B (R&D systems, #AF-201), FLAG (SigmaAldrich, #F3165), GFP (Abcam, #ab290), NLRP1 (R&D systems, #AF6788), IL18 (Abcam ab207324) and VP2 (QED Bioscience, #18758). HRV16-3Cpro was detected by rabbit serum, a kind gift from Dr. Ann Palmenberg and Dr. James Gern (University of Wisconsin). Cytokine and chemokine measurements were carried out with human IL-1B ELISA kit (BD, #557953), human IL-18 ELISA kit (MBL Bioscience, #7620) and Immune Monitoring 65-Plex Human ProcartaPlex™ Panel (ThermoFisher EPX650-10065-901). […]

Assay [2] concerns human NLRP1 inflammasome. As to the kind of experiment: HRV14-3Cpro-induced ASC-GFP speck formation in 293T-ASC-GFP-NLRP1-FLAG reporter cells. The format is cell-based. The conditions noted are these: 293T-ASC-GFP-NLRP1-FLAG cells transfected with HRV14-3Cpro; MLN4924 1 μM, MG132 2.5 μM, Bortezomib 0.5 μM, phenylalanine 1 mM; 24 hours.
Assay [3] concerns endogenous NLRP1 inflammasome. As to the kind of experiment: Endogenous NLRP1 inflammasome in doxycycline-induced Tet-ON HRV14-3Cpro N/TERT keratinocytes. The format is cell-based, human. Conditions: doxycycline 24 hours; for mature IL-1β secretion upon HRV14-3Cpro induction: Western blot, ELISA.
The subject of assay [4] is NLRP1. As to the kind of experiment: NLRP1 self-oligomerization (BN-PAGE) and cleavage fragment (SDS-PAGE/Western blot) in 293T-NLRP1-FLAG cells transfected with HRV14-3Cpro. The conditions noted are these: for stabilization of the post-cleavage NLRP1 fragment (a.a. 131-1213): 293T-NLRP1-FLAG cells transfected with HRV14-3Cpro, Western blot; for HRV14-3Cpro-induced NLRP1 self-oligomerization: 293T-NLRP1-FLAG cells, BN-PAGE, drugs for 24 hours, MG132 2.5 μM. The class given is cell-based, human.

Assay [5] concerns NLRP1 inflammasome in Talabostat-treated NHBEs. As to the kind of experiment: Talabostat-induced IL-1β and IL-18 secretion in NHBEs (ELISA). The conditions noted are these: Talabostat 2 μM, pre-treated: MLN4924 1 μM, MCC950 5 μM, Rupintrivir 10 nM. The class given is cell-based, human. The method, then:
as §1
(A) Endogenous NLRP1, ASC and caspase-1 are indispensable for HRV16-induced IL-18 secretion in NHBEs. Cas9-control, NLRP1, ASC and CASP1 KO NHBEs were infected with HRV16 as before. Conditioned media were harvested 48 hours post-infection. (B) NLRP1 is genetically required for HRV16-induced IL-18 cleavage and ASC oligomerization. Cas9 control, NLRP1 and ASC KO NHBEs were infected with HRV16 as before. Cleaved IL-18 are marked with arrows. […] Conditioned media was analyzed by IL-18 ELISA. **P<0.01, ***P<0.001, n=3 replicates from one of two independent infections. […] IL-18 levels were measured with ELISA. ****, p<0.0001 (Two-way ANOVA), n=3 independent infections/treatment. […] Lysates from HRV16-infected NHBEs in FIGS. 9E-F were analyzed by Western blot 48 hours post HRV16 inoculation.
The following antibodies were used in this study: c-Myc (Santa Cruz Biotechnology #sc-40), HA tag (Santa Cruz Biotechnology, #sc-805), GAPDH (Santa Cruz Biotechnology, #sc-47724), ASC (Adipogen, #AL-177), CASP1 (Santa Cruz Biotechnology, #sc-622), IL1B (R&D systems, #AF-201), FLAG (SigmaAldrich, #F3165), GFP (Abcam, #ab290), NLRP1 (R&D systems, #AF6788), IL18 (Abcam ab207324) and VP2 (QED Bioscience, #18758). HRV16-3Cpro was detected by rabbit serum, a kind gift from Dr. Ann Palmenberg and Dr. James Gern (University of Wisconsin). […]

Assay [6] relates to NLRP1 cleavage by HRV16 3Cpro. As to the kind of experiment: NLRP1 cleavage in HRV16-infected HeLa-Ohio-NLRP1-HA cells. The class given is cell-based, human. The conditions noted are these: HRV16 MOI=1. The method, then:
(A) HRV16 infection causes NLRP1 cleavage in HeLa-Ohio-NLRP1-HA cells. MOI=1. (B) Q130A abrogates HRV16-induced NLRP1 cleavage and ASC-GFP oligomerization. HeLa-Ohio-ASC-GFP-NLRP1WT or NLRP1^Q130A cells were infected with HRV16 at MOI=1 at 33° C. Cell pellets were harvested 48 hours post infection. (C) The effect of HRV16 infection on ASC-GFP speck formation in HeLa-Ohio-ASC-GFP cells expressing wild-type NLRP1 or NLRP1^Q130A. ***P<0.001 (Two-way ANOVA). n=3 replicates from one of two independent infections, >100 cells per condition. (D) Representative images of ASC-GFP specks in HeLa-Ohio-ASC-GFP cells expressing wild-type NLRP1 or NLRP1^Q130A. Arrows: ASC-GFP specks. Note that in this cell line the ASC-GFP specks appear less compact, even in Talabostat-treated positive control cells. […]
The effect of live HRV infection in disease-relevant human epithelial cell types was then examined. In HeLa-Ohio cells overexpressing NLRP1-HA, robust HRV16 viral replication was achieved 16 hours post inoculation (MOI=1) as detected by the accumulation of the viral capsid protein VP2 (FIG. 8A, lanes 4, 5, 10 and 11). […] Using HeLa-Ohio cells that additionally expressed ASC-GFP, we next tested whether HRV16 infection could lead to NLRP1 inflammasome complex assembly. […]

SMILES strings stand for the structures. Entries after “also recorded” stand apart in the source; their conditions may differ. Peptide text beside a SMILES is read from it. * marks the point of attachment. Cbz = O=C(OCc1ccccc1)*

For the molecule `CC(C)C[C@H](NC(=O)[C@H](Cc1ccccc1)NC(=O)c1cnccn1)B(O)O` [Bortezomib, [(1R)-3-methyl-1-[[(2S)-3-phenyl-2-(pyrazine-2-carbonylamino)propanoyl]amino]butyl]boronic acid], in assay [1], the “HRV16-induced IL-1β secretion” value was “blocks” and the “HRV16-induced IL-18 secretion” value is reported as “blocks”. In addition, in assay [1] (listed as bortezomib), the “HRV16-induced IL-1β secretion” value is listed as “completely blocked” and the “HRV16-induced IL-18 secretion” value was “completely blocked”. The “HRV14-3Cpro-induced ASC-GFP speck formation” value in assay [2] is on record as “blocked”. Moreover, in assay [3], the “ASC oligomerization upon HRV14-3Cpro induction” value was “completely blocked” and the “mature IL-1β secretion upon HRV14-3Cpro induction” value is reported as “completely blocked”. Also, the “stabilization of the post-cleavage NLRP1 fragment (a.a. 131-1213)” value in assay [4] was “to similar degrees”.
On to `CC(C)(O)c1coc(S(=O)(=O)NC(=O)Nc2c3c(cc4c2CCC4)CCC3)c1` [MCC950], for which, in assay [1], the “HRV16-induced IL-1β secretion” value was “neither IL-1β nor IL-18 secretion was affected; also recorded: did not affect” and the “HRV16-induced IL-18 secretion” value was “neither IL-1β nor IL-18 secretion was affected”. In assay [5], the “Talabostat-induced IL-1β secretion” value is reported as “neither IL-1β nor IL-18 secretion was affected” and the “Talabostat-induced IL-18 secretion” value is given as “neither IL-1β nor IL-18 secretion was affected”.
For the molecule `CC(C)C[C@@H](C=O)NC(=O)[C@H](CC(C)C)NC(=O)[C@H](CC(C)C)NC(=O)OCc1ccccc1` [MG132, benzyl N-[(2S)-4-methyl-1-[[(2S)-4-methyl-1-[[(2S)-4-methyl-1-oxopentan-2-yl]amino]-1-oxopentan-2-yl]amino]-1-oxopentan-2-yl]carbamate] (Cbz-Leu-Leu-Leu-aldehyde), the “HRV14-3Cpro-induced ASC-GFP speck formation” value in assay [2] is given as “significantly blocked”. In assay [3], the “ASC oligomerization upon HRV14-3Cpro induction” value is given as “completely abrogated” and the “mature IL-1β secretion upon HRV14-3Cpro induction” value is “completely abrogated”. In assay [4], the “stabilization of the post-cleavage NLRP1 fragment (a.a. 131-1213)” value is “to similar degrees” and the “HRV14-3Cpro-induced NLRP1 self-oligomerization” value is reported as “significantly blocked”.
As for `CCOC(=O)/C=C/[C@H](C[C@@H]1CCNC1=O)NC(=O)[C@@H](CC(=O)[C@@H](NC(=O)c1cc(C)on1)C(C)C)Cc1ccc(F)cc1` [Rupintrivir], in assay [1], the “HRV16-induced IL-1β secretion” value was “completely abrogated” and the “HRV16-induced IL-18 secretion” value is given as “completely abrogated”. Also, the NLRP1 cleavage entry in assay [6] was “completely abrogated”.
Consider `N[C@@H](Cc1ccccc1)C(=O)O` [phenylalanine], for which, in assay [2], the “HRV14-3Cpro-induced ASC-GFP speck formation” value is “had no effect”. In addition, the “HRV14-3Cpro-induced NLRP1 self-oligomerization” value in assay [4] was “had no effect”.
